From ChEMBL document CHEMBL3991601, “The target landscape of clinical kinase drugs” (Science, 2017)
Calls of active or inactive are those of the source.

How the values were obtained:
[1] = molecular target: T1, Activin receptor type-1B (Homo sapiens, UniProt P36896)
T1 sequence (P36896 whole entry): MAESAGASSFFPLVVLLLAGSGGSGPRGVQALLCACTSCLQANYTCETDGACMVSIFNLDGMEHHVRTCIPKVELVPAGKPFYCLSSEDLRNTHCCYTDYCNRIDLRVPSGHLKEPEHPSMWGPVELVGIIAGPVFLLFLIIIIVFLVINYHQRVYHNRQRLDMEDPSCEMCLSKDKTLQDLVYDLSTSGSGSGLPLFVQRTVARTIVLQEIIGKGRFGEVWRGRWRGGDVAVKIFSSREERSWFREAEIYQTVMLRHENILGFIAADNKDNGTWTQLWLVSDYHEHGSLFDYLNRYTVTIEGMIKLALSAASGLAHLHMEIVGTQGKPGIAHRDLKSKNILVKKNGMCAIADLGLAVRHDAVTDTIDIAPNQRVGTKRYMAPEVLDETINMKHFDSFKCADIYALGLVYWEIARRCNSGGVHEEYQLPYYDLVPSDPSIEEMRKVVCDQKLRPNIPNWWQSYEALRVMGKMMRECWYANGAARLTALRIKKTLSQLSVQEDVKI

[2] = molecular target: T2, Cytochrome c1, heme protein, mitochondrial (Homo sapiens, UniProt P08574)
T2 sequence (P08574 whole entry): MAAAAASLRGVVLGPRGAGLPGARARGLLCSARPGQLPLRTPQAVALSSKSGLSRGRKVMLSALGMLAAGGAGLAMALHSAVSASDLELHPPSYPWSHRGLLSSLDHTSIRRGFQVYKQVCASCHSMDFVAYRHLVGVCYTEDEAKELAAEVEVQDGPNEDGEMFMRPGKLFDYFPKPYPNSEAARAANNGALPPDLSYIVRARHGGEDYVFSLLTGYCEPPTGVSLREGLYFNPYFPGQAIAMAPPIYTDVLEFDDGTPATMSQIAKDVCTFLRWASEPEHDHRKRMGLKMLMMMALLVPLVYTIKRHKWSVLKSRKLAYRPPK

[3] = molecular target: T3, Phenylalanine--tRNA ligase beta subunit (Homo sapiens, UniProt Q9NSD9)
T3 sequence (Q9NSD9 whole entry): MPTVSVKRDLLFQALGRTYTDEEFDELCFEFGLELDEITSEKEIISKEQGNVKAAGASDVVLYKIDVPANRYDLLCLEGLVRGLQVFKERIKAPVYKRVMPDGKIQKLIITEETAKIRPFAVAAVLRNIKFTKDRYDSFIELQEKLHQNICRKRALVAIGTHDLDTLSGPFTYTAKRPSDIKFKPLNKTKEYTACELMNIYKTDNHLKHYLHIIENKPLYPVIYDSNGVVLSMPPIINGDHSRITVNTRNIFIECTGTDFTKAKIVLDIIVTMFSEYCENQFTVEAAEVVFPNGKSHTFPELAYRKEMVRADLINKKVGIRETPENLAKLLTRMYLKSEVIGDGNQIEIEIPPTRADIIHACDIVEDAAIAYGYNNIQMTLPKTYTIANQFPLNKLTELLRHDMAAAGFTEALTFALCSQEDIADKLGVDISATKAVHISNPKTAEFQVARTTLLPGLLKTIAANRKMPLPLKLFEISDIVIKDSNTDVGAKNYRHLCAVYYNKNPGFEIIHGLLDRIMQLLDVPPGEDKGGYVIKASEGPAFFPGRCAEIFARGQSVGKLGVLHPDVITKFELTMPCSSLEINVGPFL

[4] = molecular target: T4, Serine/threonine-protein kinase Nek2 (Homo sapiens, UniProt P51955)
T4 sequence (P51955 whole entry): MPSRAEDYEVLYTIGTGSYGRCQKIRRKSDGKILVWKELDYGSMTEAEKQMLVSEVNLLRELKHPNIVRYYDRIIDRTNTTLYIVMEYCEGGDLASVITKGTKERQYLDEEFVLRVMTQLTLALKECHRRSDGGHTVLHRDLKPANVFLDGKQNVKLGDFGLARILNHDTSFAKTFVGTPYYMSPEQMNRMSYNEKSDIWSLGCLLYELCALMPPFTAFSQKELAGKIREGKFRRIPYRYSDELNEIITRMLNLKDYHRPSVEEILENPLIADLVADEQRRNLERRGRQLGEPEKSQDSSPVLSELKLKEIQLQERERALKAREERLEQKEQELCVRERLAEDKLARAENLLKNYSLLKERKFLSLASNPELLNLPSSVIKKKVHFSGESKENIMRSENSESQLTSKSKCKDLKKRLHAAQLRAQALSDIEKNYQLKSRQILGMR

Measured: Kd
Also: in the data inactive means no Kd found up to 30 µM.

Cc1cc(C(=O)Nc2cc(Oc3ccc4nc(NC(=O)C5CC5)cn4n3)ccc2C)n(C)n1 [TAK-593]
inactive: [1] > 30 µM | [2] > 30 µM | [3] > 30 µM | [4] > 30 µM

Cn1c(=O)c(F)c(Nc2ccc(I)cc2F)c2c(=O)n(C[C@@H](O)CO)cnc21 [TAK-733]
inactive: [1] > 30 µM | [2] > 30 µM | [3] > 30 µM | [4] > 30 µM

O[C@H]1CC[C@H](Nc2ncc3nc(Nc4c(F)cc(F)cc4F)n([C@H]4CCOC4)c3n2)CC1 [TANZISERTIB]
inactive: [1] > 30 µM | [2] > 30 µM | [3] > 30 µM | [4] > 30 µM

CNC(=O)c1cc(COc2nnc(Nc3ccc(Cl)cc3)c3ccoc23)ccn1 [TELATINIB]
inactive: [1] > 30 µM | [2] > 30 µM | [3] > 30 µM | [4] > 30 µM

Cc1cc(-c2cc(OC(=O)c3ccccc3)ccc2Cl)cc2nnc(Nc3ccc(OCCN4CCCC4)cc3)nc12 [TG100-801]
inactive: [1] > 30 µM | [2] > 30 µM | [3] > 30 µM | [4] > 30 µM

C[C@@H]1COC(Nc2ccc3ncnc(Nc4ccc(OCc5nccs5)c(Cl)c4)c3c2)=N1 [VARLITINIB]
inactive: [1] > 30 µM | [2] > 30 µM | [3] > 30 µM | [4] > 30 µM

CNC(=O)c1cccc(-c2ccc3c(N4CCOC[C@@H]4C)nc(N4CCOC[C@@H]4C)nc3n2)c1 [VISTUSERTIB]
inactive: [1] > 30 µM | [2] > 30 µM | [3] > 30 µM | [4] > 30 µM

NC(=O)c1ccc(N(C(N)=O)c2c(F)cccc2F)nc1-c1ccc(F)cc1F [VX-702]
inactive: [1] > 30 µM | [2] > 30 µM | [3] > 30 µM | [4] > 30 µM

COc1cc2ncnc(Nc3ccc(O)cc3)c2cc1OC [WHI-P131]
inactive: [1] > 30 µM | [2] > 30 µM | [3] > 30 µM | [4] > 30 µM
